Data: patent publication US9615577B2, “Herbicidally active cyclic dione compounds, or derivatives therefor, substituted by a phenyl which has an alkynyl-containing substituent” (Syngenta Limited, priority 2012, dated 2017)

Tests used:
Format in all cases: in vivo
[1] = test system: Echinochloa crus-galli (ECHCG); test: Test 1A glasshouse assay for herbicidal activity, post-emergence; settings: 312 h, evaluated after 13 days, read-out: percentage phytotoxicity ECHCG
How it was run: (§1)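 Glasshouse spray test with visual phytotoxicity scoring (0–100%) after 13 days. Application timing: 1 day after sowing or after 8 days' cultivation, in 0.5% Tween 20 acetone/water.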

[2] = test system: Abutilon theophasti Medik. (ABUTH); test: as above; settings: 312 h, evaluated after 13 days, read-out: percentage phytotoxicity ABUTH
How it was run: as §1

[3] = test system: Amaranthus retroflexus (AMARE); test: as above; settings: 312 h, evaluated after 13 days, read-out: percentage phytotoxicity AMARE
How it was run: as §1

[4] = test system: Alopecurus myosuroides (ALOMY); test: as above; settings: 312 h, evaluated after 13 days, read-out: percentage phytotoxicity ALOMY
How it was run: as §1

[5] = test system: Triticum aestivum (TRZAW, winter wheat); test: Test 1B glasshouse assay for herbicidal activity, pre-emergence; settings: 480 h, 20 DAA, read-out: percentage phytotoxicity TRZAW
Protocol: (§2) Seeds of a variety of monocotyledonous and dicotyledonous test plants are sown in standard soil in pots. The plants are cultivated for one day (for pre-emergence) or for about 12 days (range=10-13 days) (for post-emergence) under controlled conditions in a glasshouse (warm climate species at 24/18° C., cool climate species at 20/16° C., both at day/night; 16 hours light; 65% humidity).
(§3) An “instant formulation”, known as the “IF50”, containing 50 g/liter (i.e. 5% w/v) of the “technical” (i.e. unformulated) active ingredient is prepared by dissolving the active ingredient in a mixture of organic solvents and emulsifier, details of which are provided in the Table below. This IF50 is then mixed with a small, variable amount of acetone to aid dissolution, before addition of a 0.2% v/v aqueous solution of the adjuvant X-77 (which is a mixture of alkyl aryl polyoxyethylene glycols and free fatty acids in isopropanol, CAS Registry number 11097-66-8), as the aqueous diluent, to form an aqueous spray solution which contains a predetermined concentration of the active ingredient (which varies depending on the application rate of the active ingredient to the plants) and 0.2% v/v of the adjuvant X-77. This aqueous spray solution is then sprayed onto the plants, after one day's cultivation (for pre-emergence) or after about 12 days' cultivation (for post-emergence).
(§4) The test plants are then grown on, in a glasshouse (greenhouse) under controlled conditions (at either 24/18° C. or 20/16° C. (day/night) as mentioned above; 16 hours light; 65% humidity) and are watered twice daily. Either 15 days after application of the herbicide (15 DAA) (for post-emergence), or 20 days after application of the herbicide (20 DAA) (for pre-emergence), the test plants are evaluated visually, and an assessed percentage phytotoxicity score is given for each herbicidal application on each plant species (where 100%=total damage to plant; 0%=no damage to plant).
(§5) Cool climate crop plants: Triticum aestivum (TRZAW, winter wheat), Brassica napus (BRSNN, rape, also called oilseed rape or rapeseed), Beta vulgaris (BEAVA, sugar beet).

[6] = test system: Brassica napus (BRSNN, rape); test: as above; settings: 480 h, 20 DAA, read-out: percentage phytotoxicity BRSNN
Protocol: as §2, §3, §4, §5

[7] = test system: Beta vulgaris (BEAVA, sugar beet); test: as above; settings: 480 h, 20 DAA, read-out: percentage phytotoxicity BEAVA
Protocol: as §2, §3, §4, §5

[8] = test system: Abutilon theophasti Medik. (ABUTH); test: Test 1A glasshouse assay for herbicidal activity, pre-emergence; settings: 312 h, 250 g/ha, evaluated after 13 days, read-out: percentage phytotoxicity ABUTH
How it was run: as §1

[9] = test system: SORVU (Sorghum bicolor (L.) Moench ssp. Bicolor, or Sorghum vulgare Pers.); test: Test 1B glasshouse assay for herbicidal activity, pre-emergence; settings: 480 h, 20 DAA, read-out: percentage phytotoxicity SORVU
Protocol: as §2, §3, §4
(§6) Warm climate (“warm season”) grassy monocotyledonous weeds: Setaria faberi (SETFA), SORVU (Sorghum bicolor (L.) Moench ssp. Bicolor, or Sorghum vulgare Pers.), Digitaria sanguinalis (DIGSA), Echinochloa crus-galli (ECHCG), and Brachiaria plantaginea (BRAPL).

[10] = test system: Digitaria sanguinalis (DIGSA); test: as above; settings: 480 h, 20 DAA, read-out: percentage phytotoxicity DIGSA
Protocol: as §2, §3, §4, §6

[11] = test system: Echinochloa crus-galli (ECHCG); test: as above; settings: 480 h, 20 DAA, read-out: percentage phytotoxicity ECHCG
Protocol: as §2, §3, §4, §6

Setaria faberi (SETFA) = test: as above; settings: 480 h, 20 DAA, read-out: percentage phytotoxicity SETFA
Protocol: as §2, §3, §4, §6

[12] = test system: Brachiaria plantaginea (BRAPL); test: Test 1B glasshouse assay for herbicidal activity, post-emergence; settings: Urochloa plantaginea; for pest or weed control at 30 g/ha: 30 g/ha application rate; for pest or weed control at 125 g/ha: 125 g/ha application rate; for pest or weed control at 60 g/ha: 60 g/ha application rate
How it was run: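 Pots of soil were sown and held one day for pre-emergence or about 12 days for post-emergence treatment, then sprayed with an aqueous solution containing 0.2% v/v X-77 adjuvant, prepared from a 50 g/liter IF50 formulation, at rate-dependent concentration. Visual damage scoring followed at 20 or 15 DAA respectively.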

[13] = test system: Triticum aestivum (TRZAW, winter wheat); test: as above; settings: 360 h; for plant injury at 30 g/ha: 30 g/ha application rate; for plant injury at 125 g/ha: 125 g/ha application rate; for plant injury at 60 g/ha: 60 g/ha application rate
Protocol: as §2, §3, §4, §5

[14] = test system: Brassica napus (BRSNN, rape); test: as above; settings: 360 h; for plant injury at 30 g/ha: 30 g/ha application rate; for plant injury at 125 g/ha: 125 g/ha application rate; for plant injury at 60 g/ha: 60 g/ha application rate
Protocol: as §2, §3, §4, §5

[15] = test system: Beta vulgaris (BEAVA, sugar beet); test: as above; settings: 360 h; for plant injury at 30 g/ha: 30 g/ha application rate; for plant injury at 125 g/ha: 125 g/ha application rate; for plant injury at 60 g/ha: 60 g/ha application rate
Protocol: as §2, §3, §4, §5

SMILES	pest or weed control at 250 g/ha [1]	pest or weed control at 250 g/ha [2]	pest or weed control at 250 g/ha [3]	pest or weed control at 250 g/ha [4]	pest or weed control at 250 g/ha [8]	pest or weed control at 30 g/ha [12]	pest or weed control at 125 g/ha [12]	plant injury at 30 g/ha [13]	plant injury at 125 g/ha [13]	plant injury at 30 g/ha [14]	plant injury at 125 g/ha [14]	plant injury at 30 g/ha [15]	plant injury at 125 g/ha [15]	plant injury at 500 g/ha [5]	plant injury at 500 g/ha [6]	plant injury at 500 g/ha [7]	pest or weed control at 60 g/ha [12]	plant injury at 60 g/ha [13]	plant injury at 60 g/ha [14]	plant injury at 60 g/ha [15]	also measured
CC#Cc1cc(C)c(C2=C(OC(=O)OC)CC(c3ccccn3)CC2=O)c(C)c1 (centres unmarked) [Compound A-14]	100%	80%	20%	100%	70%	70%	100%	60%	80%	60%	70%	30%	40%	–	–	–	–	–	–	–	plant injury at 250 g/ha ([5]; 250 g/ha): 40%; plant injury at 250 g/ha ([6]; 250 g/ha): 60%; plant injury at 250 g/ha ([7]; 250 g/ha): 30%; pest or weed control at 250 g/ha ([9]; 250 g/ha): 80%; pest or weed control at 250 g/ha ([10]; 250 g/ha): 100%; pest or weed control at 250 g/ha ([11]; 250 g/ha): 80%; pest or weed control at 250 g/ha (Setaria faberi (SETFA); 250 g/ha): 90%
CC#Cc1cc(C)c(C2C(=O)C3CCC(C3)C2=O)c(C)c1 (centres unmarked) [Compound A-5]	100%	60%	0%	100%	0%	90%	100%	30%	70%	70%	80%	40%	30%	20%	90%	0%	100%	30%	70%	40%	pest or weed control at 30 g/ha ([1]; 30 g/ha): 100%; pest or weed control at 30 g/ha ([2]; 30 g/ha): 0%; pest or weed control at 30 g/ha ([3]; 30 g/ha): 10%; pest or weed control at 30 g/ha ([4]; 30 g/ha): 80%; pest or weed control at 500 g/ha [9]: 90%; pest or weed control at 500 g/ha [10]: 100%; pest or weed control at 500 g/ha [11]: 100%; pest or weed control at 500 g/ha (Setaria faberi (SETFA)): 90%; pest or weed control at 500 g/ha ([12]; 500 g/ha application rate): 100%; plant injury at 500 g/ha ([13]; 500 g/ha application rate): 80%; plant injury at 500 g/ha ([14]; 500 g/ha application rate): 80%; plant injury at 500 g/ha ([15]; 500 g/ha application rate): 30%
Cc1cc(C#CCl)cc(C)c1C1C(=O)C2CCC(C2)C1=O (centres unmarked) [Compound A-6]	100%	–	0%	70%	–	90%	–	–	–	40%	–	40%	–	–	–	–	100%	40%	60%	50%	pest or weed control at 62.5 g/ha ([1]; 62.5 g/ha): 100%; pest or weed control at 62.5 g/ha ([3]; 62.5 g/ha): 10%; pest or weed control at 62.5 g/ha ([4]; 62.5 g/ha): 70%; plant injury at 125 g/ha ([5]; 125 g/ha): 10%; plant injury at 125 g/ha ([6]; 125 g/ha): 70%; plant injury at 125 g/ha ([7]; 125 g/ha): 0%; pest or weed control at 125 g/ha ([9]; 125 g/ha): 80%; pest or weed control at 125 g/ha ([10]; 125 g/ha): 100%; pest or weed control at 125 g/ha ([11]; 125 g/ha): 60%; pest or weed control at 125 g/ha (Setaria faberi (SETFA); 125 g/ha): 80%
CC#Cc1ccc(C2C(=O)C(C)(C)OC(C)(C)C2=O)c(C)c1 [Compound A-1]	100%	–	10%	90%	–	–	–	–	–	–	–	–	–	40%	60%	10%	90%	80%	70%	30%	pest or weed control at 500 g/ha [9]: 60%; pest or weed control at 500 g/ha [10]: 60%; pest or weed control at 500 g/ha [11]: 100%; pest or weed control at 500 g/ha (Setaria faberi (SETFA)): 50%
